# Where two headings read alike, the source gives them in different places.
# Assays:
# [1] = test system: single-donor human liver microsomes; conditions: donor (CYP2C19*1/*1); (+)-N-3-benzylnirvanol 5 μM; meperidine 10 μM, 10 min
# CYP2B6 [2] = molecular target: T1, CYP2B6 (Homo sapiens, UniProt P20813); assay: in vitro; conditions: recombinant CYP2B6, pH 7.4
# T1 sequence (P20813 1-491): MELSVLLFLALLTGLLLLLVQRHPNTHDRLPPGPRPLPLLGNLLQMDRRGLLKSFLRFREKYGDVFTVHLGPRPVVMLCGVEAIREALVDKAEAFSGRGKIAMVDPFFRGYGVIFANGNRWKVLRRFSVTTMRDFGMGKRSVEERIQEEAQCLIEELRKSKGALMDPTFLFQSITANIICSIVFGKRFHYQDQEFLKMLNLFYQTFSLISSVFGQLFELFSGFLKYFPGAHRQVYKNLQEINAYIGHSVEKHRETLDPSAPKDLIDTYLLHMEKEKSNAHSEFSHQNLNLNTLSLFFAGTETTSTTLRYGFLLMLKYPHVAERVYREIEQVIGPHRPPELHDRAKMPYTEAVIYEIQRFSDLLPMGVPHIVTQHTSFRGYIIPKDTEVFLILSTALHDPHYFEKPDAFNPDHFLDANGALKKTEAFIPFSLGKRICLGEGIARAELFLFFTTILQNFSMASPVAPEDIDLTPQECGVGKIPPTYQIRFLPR
# in vitro [3] = conditions: human, pooled human liver microsomes, pH 7.4
# recombinant CYP2C19 = recombinant CYP2C19 (Homo sapiens, UniProt P33261); conditions: ref Ramírez et al., (2004); cited from earlier work
# in vitro [4] = conditions: human, pooled human liver microsomes
# CYP2B6 [5] = molecular target: T1, CYP2B6; conditions: ref Ramírez et al., (2004); cited from earlier work
# [6] = cited from earlier work; for half-life: ref Clark et al., 1995
# recombinant CYP3A4 [7] = molecular target: T2, recombinant CYP3A4 (Homo sapiens, UniProt P08684); assay: Kinetic assay for meperidine N-demethylation by recombinant P450
# recombinant CYP3A4 [8] = molecular target: T2, recombinant CYP3A4; conditions: cited from earlier work
# T2 sequence (P08684 2-503 limits assumed): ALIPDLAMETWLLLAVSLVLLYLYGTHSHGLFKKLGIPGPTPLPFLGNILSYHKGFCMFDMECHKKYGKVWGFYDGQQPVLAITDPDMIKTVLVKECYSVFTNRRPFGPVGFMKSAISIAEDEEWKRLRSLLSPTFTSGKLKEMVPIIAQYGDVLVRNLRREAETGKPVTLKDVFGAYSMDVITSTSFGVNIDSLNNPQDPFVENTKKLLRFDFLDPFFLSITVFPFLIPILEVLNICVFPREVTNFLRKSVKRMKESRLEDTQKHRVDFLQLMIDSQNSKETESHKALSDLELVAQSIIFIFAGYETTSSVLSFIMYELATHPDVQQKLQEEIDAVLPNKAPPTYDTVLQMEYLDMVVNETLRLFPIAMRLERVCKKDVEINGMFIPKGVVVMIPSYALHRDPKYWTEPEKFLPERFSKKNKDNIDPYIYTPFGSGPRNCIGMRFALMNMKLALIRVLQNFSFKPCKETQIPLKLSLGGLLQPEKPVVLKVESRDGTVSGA
# Sequence of recombinant CYP2C19 (P33261 whole entry): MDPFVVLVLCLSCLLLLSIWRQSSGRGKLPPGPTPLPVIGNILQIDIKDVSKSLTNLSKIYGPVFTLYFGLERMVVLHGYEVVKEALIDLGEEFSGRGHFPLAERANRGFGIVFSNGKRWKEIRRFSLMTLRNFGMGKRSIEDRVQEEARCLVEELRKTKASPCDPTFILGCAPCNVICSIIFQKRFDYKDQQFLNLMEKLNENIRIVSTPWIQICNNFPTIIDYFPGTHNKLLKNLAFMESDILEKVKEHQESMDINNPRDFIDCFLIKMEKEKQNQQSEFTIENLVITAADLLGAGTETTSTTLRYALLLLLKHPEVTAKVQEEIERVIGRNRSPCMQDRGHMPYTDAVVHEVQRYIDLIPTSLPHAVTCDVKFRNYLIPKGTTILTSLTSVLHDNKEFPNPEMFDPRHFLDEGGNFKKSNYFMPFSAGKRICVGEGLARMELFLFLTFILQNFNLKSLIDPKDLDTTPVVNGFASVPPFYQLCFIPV
smiles,measurement,setting,value
"CCC1(c2ccccc2)NC(=O)N(Cc2ccccc2)C1=O (single isomer, unassigned; (+)) [benzylnirvanol, (+)-N-3-benzylnirvanol]",reduction of normeperidine formation compared to vehicle control,[1],< 20%
"CCOC(=O)C1(c2ccccc2)CCN(C)CC1 [meperidine, Meperidine]",Km at 10 min,CYP2B6 [2],262 ± 59 µM
same,Km at 10 min,in vitro [3],622 ± 63 µM
same,relative P450 contribution for normeperidine formation,recombinant CYP2C19,15%
same,Km,in vitro [4],1600 µM
same,relative P450 contribution for normeperidine formation,CYP2B6 [5],57%
same,half-life,[6]; patients with normal liver function,2.5 to 4 h
same,parent compound excreted in urine,"[6]; ref Burns et al., 1955, Yeh et al., 1981",5%
same,Percent Contribution to meperidine N-demethylation,recombinant CYP3A4 [7]; Approach 1 (Rowland-Yeo et al. 2004 abundances),16%
same,Percent Contribution to meperidine N-demethylation,recombinant CYP3A4 [7]; Approach 2 (Achour et al. 2014 abundances),9%
same,Percent Contribution to meperidine N-demethylation,recombinant CYP3A4 [7]; Approach 3 (Rodrigues 1999 abundances),5%
same,"estimated percent P450 contribution (fm, P450) for meperidine N-demethylation",recombinant CYP3A4 [7]; range over three sets of reported P450 abundances,5–16%
same,relative P450 contribution for normeperidine formation,"recombinant CYP3A4 [8]; CYP3A4, ref Ramírez et al., (2004)",28%
same,catalytic efficiency for meperidine N-demethylation,"recombinant CYP3A4 [8]; recombinant CYP3A4, ref Ramirez et al. (2004)",0.07 min⁻¹ µM⁻¹
CCOC(=O)C1(c2ccccc2)CCNCC1 [normeperidine],half-life,[6]; at therapeutic doses,14 to 21 h
same,half-life,[6]; patients with renal insufficiency,exceed 34 hours

# From article PMC7755165 (Xenobiotica; the fate of foreign compounds in biological …, 2019)
